This is an account of results in US20050159427A1, “N-acylsulfonamide apoptosis promoters” (priority 2003, published 2005).

This assay deals with A549 human non-small cell lung carcinoma cells. Kind of assay: Paclitaxel combination on A549 cells. Type of assay: cell-based. As to conditions: stated after the paclitaxel combination results on A549 and PC-3 cells.

For `CN(C)CC[C@@H](CSc1ccccc1)Nc1ccc(S(=O)(=O)NC(=O)c2ccc(N3CCN(Cc4ccccc4-c4ccc(Cl)cc4)CC3)cc2)cc1[N+](=O)[O-]` [enantiomer of EXAMPLE 2, N-(4-(4-((4′-chloro(1,1′-biphenyl)-2-yl)methyl)piperazin-1-yl)benzoyl)-4-(((1S)-3-(dimethylamino)-1-((phenylsulfanyl)methyl)propyl)amino)-3-nitrobenzenesulfonamide], the “efficacy relative to EXAMPLE 2” value is given as “less efficacious”.
